Entries after “also recorded” stand apart in the source; their conditions may differ.
Experiments:
[1] = Laboratory safety tests and ECGs at doses and durations studied to date; format: in vivo; settings: doses and treatment duration studied to date
From the text: Overall, the study drug was generally well-tolerated.

hERG = hERG (Homo sapiens, UniProt Q12809); experiment: hERG voltage clamp assay; format: cell-based
platelets = experiment: Arachidonic acid (AA)-induced platelet aggregation; format: in vivo, humans; settings: loading and maintenance doses
Description: A pharmacodynamic substudy incorporating light aggregometry was performed under stringent physiologic conditions and read by a central core laboratory. […] The term “therpeutically effective amount of a thrombin receptor antagonist” will be understood to mean that quantity of the thrombin receptor antagonist sufficient to achieve at least 80% inhibition of TRAP mediated platelet aggregation.
Similarly, there is no effect on arachidonic acid (“AA”) -induced platelet aggregation (see FIGS. 16 and 17) or collagen-induced platelet aggregation (see FIGS. 18-21).

[2] = Phase 2 study (P03573): bleeding in secondary cohort (medically treated); format: in vivo, humans
From the text: The behavior of SCH 530348 in humans was further studied in a Phase 2 clinical development program. A key safety issue for SCH 530348 is the potential for incremental bleeding when added to standard of care with other oral antiplatelet therapies as well as parenteral antithrombotics. Therefore, a single Phase 2 study (P03573) was completed to evaluate the safety of SCH 530348 in patients at high risk of bleeding events, i.e., those patients undergoing non-emergent PCI (percutaneous coronary intervention). The goals of this Phase 2 study were to: • Evaluate the safety of SCH 530348 in addition to standard of care with respect to TIMI major and minor bleeding; and, • Observe the effects of SCH 530348 on major adverse cardiac events (“MACE”) in patients successfully completing an interventional procedure.
The primary endpoint (directed to evaluating safety) was the combined […] (“TIMI”) major and TIMI minor bleeding over sixty days in the primary evaluable cohort. Though the study was not powered to evaluate efficacy, a secondary endpoint (directed to evaluating efficacy) was the incidence of the composite of death and major adverse cardiac events (“MACE”) in the primary cohort. MACE includes myocardial infarction, urgent revascularization, and ischemia requiring hospitalization. Pharmacokinetics and pharmacodynamics were assessed at selected sites across the treatment groups. Other secondary endpoints included the incidence of TIMI major and minor bleeding in the secondary evaluable cohort i.e., those individuals who received the loading dose only.
The secondary cohort consisted of non-PCI patients who were treated medically (n=382) or underwent CABG (n=75). […] These included two vascular access site and one post-operative (surgical hip replacement) bleed.

[3] = Pharmacokinetics: blood concentration of SCH 530348; format: in vivo, humans
Description: As the dose of SCH 530348 increased, the onset of platelet aggregation occurred at earlier sampling time points and maximum observed inhibition of aggregation increased, with 20 and 40 mg causing consistent maximum (>80%) inhibition of TRAP-induced platelet aggregation at 1-2 hours post dose. […] The duration of these pharmacodynamic effects is consistent with the drug's long elimination half-life.
This level of platelet inhibition is believed to be sufficient to lower the risks of adverse clinical events associated with PCI. […] The term “risk-abated PCI procedures” will be understood to mean those PCI procedures that are undertaken after the patient has achieved at least 80% platelet inhibition. This represents a marked improvement over the 4-6 hour period before risk-abated PCI can be performed using the current standard of care, i.e., clopidogrel and aspirin without a thrombin receptor antagonist.

[4] = Monkey bleeding liability study: forearm template bleeding time; format: in vivo, cynomolgus monkeys; settings: for Template bleeding time: anesthetized monkeys, single oral dose (SCH 530348 1 mg/kg, ASA 10 mg/kg, clopidogrel 2 mg/kg), mean ± SEM
Description: (§1) Any novel antiplatelet agent should optimally avoid incremental bleeding risk relative to the current standard of care. The bleeding risk of SCH 530348 was evaluated in anesthetized cynomoigus monkeys in which SCH 530348 was administered alone and along with aspirin and clopidogrel. Bleeding assessment was conducted following administration of single doses of SCH 530348 (1 mg/kg) and/or aspirin (10 mg/kg, ASA) and clopidogrel (2 mg/kg). Four groups of monkeys were dosed orally with either vehicle (the medium used to dissolve the drug, 0.4% methylcellulose) or drug (n=5-6/group): Group I: vehicle, Group II: SCH 530348 (1 mg/kg), Group III ASA (10 mg/kg) plus clopidogrel (2 mg/kg) and Group IV: combination of SCH 530348, ASA plus clopidogrel. Doses of various drugs used inhibited their respective platelet pathways by >90% as assessed by ex-vivo platelet aggregation in whole blood. Two hours after dosing, animals were anesthetized and bleeding risk was assessed by forearm template bleeding time and surgical blood loss from a femoral incision site.
Template bleeding time was assessed as follows. The forearm of the monkey was shaved of hair and a precision cut (5 mm long and 1 mm deep) was made on the skin with a Simplate® bleeding device (Organon Tehnika), The duration of bleeding by blotting blood onto a filter paper at the incision site was determined. When blood was no longer absorbed onto the filter paper, bleeding was considered “stopped.” The time from initiation of the cut to when bleeding stopped is defined as the template bleeding time. In these studies bleeding time was assessed on two occasions at approximately 3.5 and 4 hrs after oral dosing with the drug.

[5] = Monkey bleeding liability study: surgical blood loss from femoral incision site; format: in vivo, cynomolgus monkeys; settings: anesthetized monkeys, single oral dose (SCH 530348 1 mg/kg, ASA 10 mg/kg, clopidogrel 2 mg/kg), mean ± SEM
Description: as §1
Surgical blood loss was assessed as follows. The femoral artery and femoral vein on the hind leg of the anesthetized monkey were surgically isolated by cutting with a scalpel blade. […] A small sample was read in a spectrophotometer (at […]) and the volume of blood loss was derived from a standard curve. […]

dog Purkinje fibers = format: cell-based
[6] = monkey, in vivo

hERG, sequence (Q12809 whole entry): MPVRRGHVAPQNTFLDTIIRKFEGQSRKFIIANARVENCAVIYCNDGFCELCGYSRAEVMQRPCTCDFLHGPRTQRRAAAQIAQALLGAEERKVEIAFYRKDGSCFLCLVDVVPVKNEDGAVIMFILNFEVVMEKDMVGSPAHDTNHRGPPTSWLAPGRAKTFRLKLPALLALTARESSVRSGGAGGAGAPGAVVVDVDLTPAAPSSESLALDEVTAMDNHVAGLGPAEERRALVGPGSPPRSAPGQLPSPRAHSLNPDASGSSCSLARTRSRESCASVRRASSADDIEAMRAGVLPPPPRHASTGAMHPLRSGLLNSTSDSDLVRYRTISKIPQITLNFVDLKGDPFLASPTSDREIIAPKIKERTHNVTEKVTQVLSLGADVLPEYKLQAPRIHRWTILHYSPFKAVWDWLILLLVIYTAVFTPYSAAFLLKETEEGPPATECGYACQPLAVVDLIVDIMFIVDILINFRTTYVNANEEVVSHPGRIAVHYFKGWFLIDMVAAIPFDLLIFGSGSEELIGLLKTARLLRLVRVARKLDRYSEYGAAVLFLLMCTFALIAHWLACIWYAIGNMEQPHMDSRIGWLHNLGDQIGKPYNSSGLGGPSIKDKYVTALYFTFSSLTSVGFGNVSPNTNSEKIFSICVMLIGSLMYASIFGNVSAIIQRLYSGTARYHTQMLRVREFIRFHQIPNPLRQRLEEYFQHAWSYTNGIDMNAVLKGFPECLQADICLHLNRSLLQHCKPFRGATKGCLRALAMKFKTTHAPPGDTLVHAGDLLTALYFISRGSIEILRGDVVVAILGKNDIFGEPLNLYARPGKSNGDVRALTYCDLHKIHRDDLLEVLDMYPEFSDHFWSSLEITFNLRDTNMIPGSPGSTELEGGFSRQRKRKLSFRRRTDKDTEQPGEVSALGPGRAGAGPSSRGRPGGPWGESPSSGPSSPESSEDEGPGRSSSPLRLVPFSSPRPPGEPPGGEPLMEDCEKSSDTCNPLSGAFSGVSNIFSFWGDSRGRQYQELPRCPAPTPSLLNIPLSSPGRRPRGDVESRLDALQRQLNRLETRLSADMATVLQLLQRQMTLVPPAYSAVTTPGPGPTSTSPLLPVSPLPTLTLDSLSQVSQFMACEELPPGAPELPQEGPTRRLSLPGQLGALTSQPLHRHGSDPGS

SMILES: CCOC(=O)N[C@@H]1CC[C@@H]2[C@@H](C1)C[C@H]1C(=O)O[C@H](C)[C@H]1[C@H]2/C=C/c1ccc(-c2cccc(F)c2)cn1.O=S(=O)(O)O [SCH 530348, ethyl [(1R,3aR,4aR,6R,8aR,9S,9aS)-9-[(E)-2-[5-(3-fluorophenyl)-2-pyridinyl]ethenyl]-dodecahydro-1-methyl-3-oxonaphtho[2,3-c]furan-6-yl] carbamate bisulfate]
- Changes in laboratory safety tests or ECGs [1]: no significant treatment-related changes or abnormalities
- IC50 (hERG): ~341 nM
- Effect on arachidonic acid (AA)-induced platelet aggregation (platelets): no effect
- Any bleed, patients (%) ([2]; 10 mg loading dose): 8%
- non-TIMI bleeding, patients (%) ([2]; 10 mg loading dose): 8%
- Any bleed, patients (%) ([2]; 20 mg loading dose): 12 (12%)
- TIMI Major/Minor bleeding, patients (%) ([2]; 20 mg loading dose): 2 (2%)
- TIMI Minor bleeding, patients (%) ([2]; 20 mg loading dose): 2 (2%)
- non-TIMI bleeding, patients (%) ([2]; 20 mg loading dose): 11 (11%)
- Any bleed, patients (%) ([2]; 40 mg loading dose): 10%
- TIMI Major/Minor bleeding, patients (%) ([2]; 40 mg loading dose): 1 (1%)
- TIMI Minor bleeding, patients (%) ([2]; 40 mg loading dose): 1 (1%)
- non-TIMI bleeding, patients (%) ([2]; 40 mg loading dose): 10%
- Any bleed, patients (%) ([2]; All SCH 530348): 10%
- TIMI Major/Minor bleeding, patients (%) ([2]; All SCH 530348): 1%
- TIMI Minor bleeding, patients (%) ([2]; All SCH 530348): 1%
- non-TIMI bleeding, patients (%) ([2]; All SCH 530348): 10%
- Time to peak blood concentration levels ([3]; 40 mg loading dose): in as little as one hour
- Elimination half-life ([3]; in vivo): long
- Bleeding risk / prolongation of bleeding ([4]; SCH 530348 1 mg/kg alone or with aspirin and clopidogrel, 1 mg/kg): no bleeding risk; also recorded: no prolongation of bleeding
- Template bleeding time [4]: 4.9 min
- Template bleeding time ([4]; listed as Group II): 4.9 ± 0.99 min
- Surgical blood loss [5]: 0.18 mL/h
- Surgical blood loss ([5]; listed as Group II): 0.18 ± 0.03 mL/h
- QT prolongation based on action potential duration (dog Purkinje fibers): no evidence of QT prolongation
- QT prolongation [6]: no evidence of QT prolongation

Reference: patent publication US20080234236A1, “REDUCTION OF ADVERSE EVENTS AFTER PERCUTANEOUS INTERVENTION BY USE OF A THROMBIN RECEPTOR ANTAGONIST” (priority 2007, published 2008)
